Laboratory results from patent EP0084516B1, “Anthelmintics” (CIBA-GEIGY AG, priority 1982, dated 1983).
Where “and” joins values, the source holds several entries; their conditions need not be identical. Equal values may be shown once.

Columns and labels:
Fasciola hepatica [1] = test: Tests on sheep artificially infected with Fasciola hepatica metacercariae (faecal egg counts and adult fluke counts at autopsy); type: in vivo, Schafe; details: for Adulte Egel bei Autopsie Mittelwert: group mean
Description: Versuche an mit Fasciola hepatica infizierten Schafen
36 Schafe wurden artifiziell mit Metacercarien von Fasciola hepatica infiziert. Zu diesem Zweck wurden die Metacercarien in einer wäßrigen 0,4%igen Suspension von Carboxymethylcellulose direkt in den Rumen der Versuchstiere injiziert. Die Tiere wurden dann für die Medikierung in etwa gleichgroße Gruppen und in drei Kontrollgruppen eingeteilt. Nach 4 Wochen wurden die Wirkstoffe in Dosen von 5 bis 10 mg/kg Körpergewicht je nach vorgesehener Kombination an die Versuchstiere verabreicht.
Während des Versuchs wurden die Schafe in Gehegeboxen unter Normalbedingungen gehalten.
Zur Prüfung der Wirkung der einzelnen Wirkstoffkombinationen wurden mit einer Standardtechnik 12 bis 15 Wochen nach Infizierung bzw. 8 bis 11 Wochen nach Medikierung die von den Leberegeln abgelegten Eier im Kot gezählt. Anschließend wurden die Versuchstiere getötet, soweit sie nicht zur Gruppe B und Kontrollgrupe B' gehörten (Tiere Nr. 26-36), und es wurde die Zahl der vorhandenen Leberegel festgestellt.

Fasciola hepatica [2] = test: as above; type: in vivo, Schafe; details: B 4,6 mg/kg, individual sheep
[3] = system: 6wöchige und jüngere Leberegel; details: comparable dose; from Austral. Vet. J. 55, 431-432, 1979; Brit. Vet. J. 138,371-382, 1982; cited from earlier work

COC(=O)Nc1nc2ccc(Sc3ccccc3)cc2[nH]1 [Substanz C, [5-(Phenylthio)-1 H-benzimidazol-2-yl]-carbaminsäuremethylester, reference compound]
Adulte Egel bei Autopsie Anzahl (Fasciola hepatica [1]; C 5,0 mg/kg, given 4 weeks after infection, Tabelle 2, individual sheep): 54 and 77 and 82
Adulte Egel bei Autopsie Mittelwert (Fasciola hepatica [1]; C 5,0 mg/kg, Tabelle 2, sheep 20-22): 71
Adulte Egel bei Autopsie % Reduktion (Fasciola hepatica [1]; C 5,0 mg/kg, Tabelle 2, versus untreated control C'): 0%

CSc1nc2cc(Cl)c(Oc3cccc(Cl)c3Cl)cc2[nH]1 [Substanz A, 5-Chlor-6-(2',3'-dichlorphenoxy)-2-methylthiobenzimidazol]
Adulte Egel bei Autopsie Anzahl (Fasciola hepatica [1]; A 5,0 mg/kg, given 4 weeks after infection, individual sheep): 12 and 23 and 2 and 14 and 0
EPG* 14. Woche (Fasciola hepatica [1]; A 5,0 mg/kg, given 4 weeks after infection, liver fluke eggs per g faeces, week 14 after infection, individual sheep): 65 pro gr Faeces and 60 pro gr Faeces and 0 pro gr Faeces (2×) and 10 pro gr Faeces
EPG* 15. Woche (Fasciola hepatica [1]; A 5,0 mg/kg, given 4 weeks after infection, week 15 after infection, individual sheep): 125 pro gr Faeces and 60 pro gr Faeces and 5 pro gr Faeces and 0 pro gr Faeces (2×)
Adulte Egel bei Autopsie Mittelwert (Fasciola hepatica [1]; A 5,0 mg/kg, sheep 1-5): 10,2
Adulte Egel bei Autopsie % Reduktion (Fasciola hepatica [1]; A 5,0 mg/kg, versus untreated control A'): 89,4%

CCCSc1ccc2nc(NC(=O)OC)[nH]c2c1 [Substanz B, [5-(Propylthio)-1 H-benzimidazol-2-yl]-carbaminsäuremethylester]
EPG* 12. Woche (Fasciola hepatica [2]; given 4 weeks after infection, week 12 after infection): 360 pro gr Faeces and 370 pro gr Faeces and 290 pro gr Faeces and 880 pro gr Faeces
EPG* 13. Woche (Fasciola hepatica [2]; week 13 after infection): 1110 pro gr Faeces and 560 pro gr Faeces and 370 pro gr Faeces and 1280 pro gr Faeces
Wirkung gegen 6wöchige und jüngere Leberegel [3]: unwirksam
